From patent EP0563238B1, “IMIDAZOLYL-ALKENOIC ACIDS” (SMITHKLINE BEECHAM CORPORATION, priority 1990, dated 1992)

Biological target: vascular angiotensin II receptors
Assay: 125I-angiotensin II radioligand binding assay
Details: particular fraction from rat mesenteric arteries, 80 pM 125I-angiotensin II, 1 hour at 25°C; concentration needed to displace 50% of the total specifically bound angiotensin II
Procedure: Angiotensin II antagonist activity of the compounds of Formula (I) is assessed by in vitro and in vivo methods. In vitro antagonist activity is determined by the ability of the compounds to compete with ^125I-angiotensin II for binding to vascular angiotensin II receptors and by their ability to antagonize the contractile response to angiotensin II in the isolated rabbit aorta. In vivo activity is evaluated by the efficacy of the compounds to inhibit the pressor response to exogenous angiotensin II in conscious rats and to lower blood pressure in a rat model of renin dependent hypertension.
The radioligand binding assay is a modification of a method previously described in detail (Gunther et al., Circ. Res. 47:278, 1980). A particular fraction from rat mesenteric arteries is incubated in Tris buffer with 80 pM of ^125I-angiotensin II with or without angiotensin II antagonists for 1 hour at 25°C. The incubation is terminated by rapid filtration and receptor bound ^125I-angiotensin II trapped on the filter is quantitated with a gamma counter. The potency of angiotensin II antagonists is expressed as the IC50 which is the concentration of antagonist needed to displace 50% of the total specifically bound angiotensin II.

IC50: ~250 nM
SMILES: CCCCc1ncc(/C=C(\Cc2cccs2)C(=O)O)n1-c1ccc(C(=O)O)cc1 [Example 1, (E)-3-[2-n-Butyl-1-{4-carboxyphenyl}-1H-imidazo-5-yl]-2-(2-thienyl)methyl-2-propenoic acid]
